This is an account of results in PMC6944674, “Comparison of the Hepatotoxic Potential of Two Treatments for Autosomal-Dominant Polycystic Kidney DiseaseUsing Quantitative Systems Toxicology Modeling” (Pharmaceutical Research, 2020).

A short description of data set [1]: Intracellular concentration by LC/MS/MS in HepG2 cultures parallel to Seahorse assay. The format is in vitro ADME. Conditions: human, HepG2 cells, Seahorse medium. As to the method:
(§1) The concentration of test compound at the site of action (i.e. hepatocytes) has been identified as highly influential in the selection of parameter values (7). To assess intracellular concentrations of the five test articles, identical HepG2 cultures were established in parallel and cell lysate concentrations of the test articles were measured by LC/MS/MS analysis. Intracellular concentrations of the test articles were calculated by correcting for cell lysate volume (100 µL) and the volume of HepG2 cells in each well, which was calculated by multiplying cell count per well by cellular volume per cell (2.85 pl/cell). One independent study in duplicate was conducted to assess intracellular concentrations of the test articles for Seahorse studies.

For the next data set, the system named is HepG2 cells. Described as above. The format is in vitro ADME. Conditions: Seahorse medium; for CIntracellular Fraction: cell lysate; for CHepatocyte: corrected for lysate and HepG2 cell volume. As to the method:
as §1

Take `Cc1ccc(F)cc1C(=O)Nc1ccc(C(=O)N2Cc3cccn3Cc3ccccc32)c(Cl)c1` [Lixivaptan, lixivaptan]: in data set [1] (dose 0.5 µM), the Kp at 0.5 µM worked out at 23.2. For the same molecule, the Kp at 1 µM in data set [1] (dose 1 µM) stood at 14.3. Further, the Kp at 5 µM in data set [1] (dose 5 µM) was determined as 8.02. This molecule also yielded a Kp at 10 µM in data set [1] (dose 10 µM) of 6.35. The Kp at 25 µM in data set [1] (dose 25 µM) was 4.52. This molecule also yielded a Kp at 40 µM in data set [1] (dose 40 µM) of 4.62. Moreover, the “CIntracellular Fraction” value is given as 0 µM with HepG2 cells (dose 0.1 µM); 0.00582 µM with HepG2 cells (dose 0.5 µM); 0.00738 µM in the data set with HepG2 cells (dose 1 µM); 0.0193 µM with HepG2 cells (dose 5 µM); 0.0307 µM in the data set with HepG2 cells (dose 10 µM); 0.0525 µM with HepG2 cells (dose 25 µM). Moreover, in the data set with HepG2 cells (dose 40 µM), the “CIntracellular Fraction” value is reported as 0.0823 µM. Moreover, the CHepatocyte stood at 0 µM with HepG2 cells (dose 0.1 µM); 11.61 µM with HepG2 cells (dose 0.5 µM); 14.34 µM in the data set with HepG2 cells (dose 1 µM); 40.10 µM with HepG2 cells (dose 5 µM); 63.51 µM in the data set on HepG2 cells (dose 10 µM); 112.99 µM with HepG2 cells (dose 25 µM). The same molecule came in with a CHepatocyte in the data set on HepG2 cells (dose 40 µM) of 184.62 µM.
